Data taken from patent US6765128B1, “Method of using a pathogen-activatable map kinase to enhance disease resistance in plants” (priority 1998, dated 2004).

Legend:
48-kD SIPK = experiment: Phosphatase treatment of protein extracts, then in-gel kinase activity assay; format: biochemical, tobacco; conditions: okadaic acid 1 μM; Na3VO4 1 mM
Experimental: (§1) In-gel kinase activity assay. The in-gel kinase activity assay was performed as described previously (zhang & Klessig, 1997). The relative kinase activity were quantitated using a PhosphorImager (Molecular Dynamics Inc., Sunnyvale, Calif.) and normalized to the level present at the zero time point for the 48-kD kinase, which was given a value of 1.
(§2) Treatment of protein extracts with phosphatases. Protein extracts were prepared in the absence of phosphatase inhibitors from TMV-infected leaves at 8 hr after shifting plants from 32° C. to 22° C. or 48 hr after infection at 22° C. Samples containing 20 μg of protein were treated with either the serine/threonine-specific phosphatase, PP-2A1 (0.25 units in 30 μL; Upstate Biotechnology, Lake Placid, N.Y.), or the tyrosine-specific protein phosphatase, YOP (2 units in 30 μL; NEB), for 20 min at 30° C. in the presence or absence of a phosphatase inhibitor. The PP-2A1 inhibitor, okadaic acid, and YOP inhibitor, Na3VO4 were used at a concentration of 1 μM and 1 mM, respectively. After phosphatase treatment, kinase activity was detected by the in-gel kinase activity assay.

[1] = test system: WIPK-encoded 44-kD kinase; experiment: as above; format: biochemical, tobacco; conditions: okadaic acid 1 μM; Na3VO4 1 mM
Experimental: as §1, §2

SIPK = conditions: Zhang & Klessig, 1997; cited from earlier work
His-tagged WIPK protein = experiment: Immunoblot analysis of Ab-p44N against a panel of His-tagged MAP kinases; format: binding, tobacco; conditions: 0.2 μg/mL competitor peptide
Experimental: Antibody production and immunoblot analysis. The peptides p44N (MADANMGAGGGQFPDFPS; SEQ ID NO: 2) and p48N ([…]; SEQ ID NO: 3), which correspond respectively to the unique N-termini of the WIPK and the SIPK proteins, were synthesized and conjugated to keyhole limpet hemacyanin (KLH) carrier. Polyclonal antisera were raised in rabbits and purified by affinity column chromatography (Zymed Laboratory, South San Francisco, Calif.).
For immunoblot analysis, 20 μg of total protein per lane were separated on 10% SDS-polyacrylamide gels, and the proteins were transferred to nitrocellulose membranes (Schleicher & Schuell, Inc., Keene, N.H.) by semi-dry electroblotting. […]
The 44-kD kinase activated by TWV in encoded by WIPK. […] The specificity of the Ab-p44N was assessed by immunoblot analysis against a panel of different MAP kinases as described above for Ab-p48N.

| Effect of competitor peptide on binding of Ab-p44N to His-tagged WIPK protein (His-tagged WIPK protein) | Compound | Effect of phosphatase inhibitor on inactivation of SIPK by PP-2A1 and YOP (48-kD SIPK) | Effect of phosphatase inhibitor on inactivation of WIPK by PP-2A1 and YOP [1] | Activation of SIPK by treatment (SIPK) |
| --- | --- | --- | --- | --- |
| – | C=C1[C@@H](O)[C@@H]2O[C@]3(CC[C@H](/C=C/[C@@H](C)[C@@H]4CC(C)=C[C@@]5(O[C@H](C[C@@](C)(O)C(=O)O)CC[C@H]5O)O4)O3)CC[C@H]2O[C@@H]1[C@@H](O)C[C@H](C)[C@H]1O[C@@]2(CCCCO2)CC[C@H]1C [okadaic acid] | prevented | prevented | – |
| – | [Na+].[Na+].[Na+].[O]=[V]([O-])([O-])[O-] [vanadate, Na3VO4] | prevented | prevented | – |
| – | O=C(O)c1ccccc1O [SA, salicylic acid] | – | – | activated |
| blocked binding | MADANMGAGGGQFPDFPS [p44N] | – | – | – |
| not | MDGSGQQTDTMMSDAGAEQPPTAP [p48N, peptide corresponding to the unique N-terminus of SIPK] | – | – | – |
